Values of other authors, collected in US11198731B2 (Exelixis, Inc., priority 2017, dated 2021).
Like-named read-outs stand apart in the source and are kept apart here.

How the values were obtained:
Conditions in all cases: cited from earlier work
[1] = system: advanced RCC after prior VEGFR-TKI
[2] = system: NSCLC without EGFR genetic alterations
[3] = system: previously-untreated advanced RCC of intermediate- or poor-risk
[4] = system: platinum-pretreated NSCLC
[5] = system: advanced CRPC with bone metastases

CO[C@H]1C[C@@H]2CC[C@@H](C)[C@@](O)(O2)C(=O)C(=O)N2CCCC[C@H]2C(=O)O[C@H]([C@H](C)C[C@@H]2CC[C@@H](OCCO)[C@H](OC)C2)CC(=O)[C@H](C)/C=C(\C)[C@@H](O)[C@@H](OC)C(=O)[C@H](C)C[C@H](C)/C=C/C=C/C=C/1C [everolimus]
ORR per IRC ([1]; ITT population): 3%
Median duration of PFS (Kaplan-Meier) ([1]; Primary Endpoint Intent-to-Treat population): 3.8 months
Median duration of OS (Kaplan-Meier) ([1]; in vivo): 16.5 months
Treatment discontinuations due to AEs ([1]; incidence in each arm): 10%

C#Cc1cccc(Nc2ncnc3cc(OCCOC)c(OCCOC)cc23)c1 [erlotinib, reference compound]
Progression as best response ([2]; % of subjects): 66%
Estimated median OS ([2]; in vivo): 5.1 months
ORR ([2]; in vivo): 3%
PFS ([2]; second or third line treatment): 1.8 months

CCN(CC)CCNC(=O)c1c(C)[nH]c(/C=C2\C(=O)Nc3ccc(F)cc32)c1C [sunitinib, reference compound]
Discontinued study treatment due to an AE ([3]; 16 subjects in each arm): 21%
Adverse events of ≥Grade 3 regardless of causality ([3]; % of subjects): 65%
≥Grade 3 AE: PPE ([3]; in vivo): 4%
≥Grade 3 AE: diarrhea ([3]; in vivo): 11%
≥Grade 3 AE: fatigue ([3]; in vivo): 17%
≥Grade 3 AE: hematological events ([3]; in vivo): 21%
≥Grade 3 AE: hypertension ([3]; in vivo): 21%

CC(=O)O[C@@]12CO[C@@H]1C[C@H](O)[C@@]1(C)C(=O)[C@H](O)C3=C(C)[C@@H](OC(=O)[C@H](O)[C@@H](NC(=O)OC(C)(C)C)c4ccccc4)C[C@@](O)([C@@H](OC(=O)c4ccccc4)[C@H]21)C3(C)C [docetaxel]
Median OS ([4]; ITT population): 9.6 months
ORR ([4]; ITT population): 13%
Median OS ([4]; PD-L1 positive population (2 1% PD-L1 expression)): 10.3 months
Treatment-related Grade 3 or 4 AEs [4]: 43%
Median DOR ([4]; in vivo): 6.2 months
Subjects who discontinued treatment due to AE ([4]; in vivo): 19%

C[C@]12C=CC(=O)C=C1CC[C@@H]1[C@@H]2C(=O)C[C@@]2(C)[C@H]1CC[C@]2(O)C(=O)CO [prednisone, reference compound]
Proportion of subjects with a bone scan response (BSR) per IRC ([5]; at Week 12): 3%
Median PFS per investigator ([5]; exploratory endpoint): 2.8 months
Median duration of BSR ([5]; in vivo): 1.8 months
Median duration of OS (Kaplan-Meier) ([5]; in vivo): 9.8 months
